In ChEMBL document CHEMBL5724914, “Linking interpersonal differences in gut microbiota composition and drug biotransformation activity” (2024):

Legend:
[1] = (§1) The drug is tested on Z-014 corresponding to rat gut metagenome with ENA study accession number: PRJEB37062 and ENA sample accession number: ERS12561814 for biotransformation under anaerobic condition. The drug concentrations were measured over 9 timepoints collected between 0 and 24 hours of incubation by liquid-chromatography-coupled mass spectrometry (LC–MS); conditions: 2 µM
[2] = human gut metagenome, 24 h, 2 µM
[3] = as §1, with “on Z-006” for “on Z-014”, “to mouse” for “to rat”, “number: ERS12561806” for “number: ERS12561814”; conditions: 2 µM
[4] = as §1, with “on Z-002” for “on Z-014”, “to rabbit” for “to rat”, “number: ERS12561802” for “number: ERS12561814”; conditions: 2 µM
[5] = human gut metagenome, 24 h, 2 µM; remark: listed apart in the source
[6] = as §1, with “on Z-024” for “on Z-014”, “to pig” for “to rat”, “number: ERS12561823” for “number: ERS12561814”; conditions: 2 µM
[7] = as §1, with “on WLS-350” for “on Z-014”, “to human” for “to rat”, “number: ERS12561789” for “number: ERS12561814”; conditions: 2 µM
[8] = human gut metagenome, 24 h, 2 µM; remark: listed apart in the source
[9] = as §1, with “Z-004” for “Z-014”, “to” for “to rat gut”, “ERS12561804” for “ERS12561814”; conditions: 2 µM
[10] = human gut metagenome, 24 h, 2 µM; remark: listed apart in the source
[11] = as §1, with “on WLS-086” for “on Z-014”, “to human” for “to rat”, “number: ERS12561752” for “number: ERS12561814”; conditions: 2 µM
[12] = human gut metagenome, 24 h, 2 µM; remark: listed apart in the source
[13] = human gut metagenome, 24 h, 2 µM; remark: listed apart in the source
[14] = as §1, with “on WLS-310” for “on Z-014”, “to human” for “to rat”, “number: ERS12561785” for “number: ERS12561814”; conditions: 2 µM
[15] = human gut metagenome, 24 h, 2 µM; remark: listed apart in the source
[16] = as §1, with “on Z-009” for “on Z-014”, “to pig” for “to rat”, “number: ERS12561809” for “number: ERS12561814”; conditions: 2 µM
[17] = as §1, with “Z-012” for “Z-014”, “to” for “to rat gut”, “ERS12561812” for “ERS12561814”; conditions: 2 µM
[18] = human gut metagenome, 24 h, 2 µM; remark: listed apart in the source
[19] = as §1, with “Z-005” for “Z-014”, “to” for “to rat gut”, “ERS12561805” for “ERS12561814”; conditions: 2 µM
[20] = human gut metagenome, 24 h, 2 µM; remark: listed apart in the source
Further: call rule not given here.

| Structure (SMILES) | Bacterial Biotransformation [1] | Bacterial Biotransformation [2] | Bacterial Biotransformation [3] | Bacterial Biotransformation [4] | Bacterial Biotransformation [5] | Bacterial Biotransformation [6] | Bacterial Biotransformation [7] | Bacterial Biotransformation [8] | Bacterial Biotransformation [9] | Bacterial Biotransformation [10] | Bacterial Biotransformation [11] | Bacterial Biotransformation [12] | Bacterial Biotransformation [13] | Bacterial Biotransformation [14] | Bacterial Biotransformation [15] | Bacterial Biotransformation [16] | Bacterial Biotransformation [17] | Bacterial Biotransformation [18] | Bacterial Biotransformation [19] | Bacterial Biotransformation [20] |
| --- | --- | --- | --- | --- | --- | --- | --- | --- | --- | --- | --- | --- | --- | --- | --- | --- | --- | --- | --- | --- |
| C#C[C@]1(OC(C)=O)CC[C@H]2[C@@H]3CCC4=C[C@@H](OC(C)=O)CC[C@@H]4[C@H]3CC[C@@]21C [ETHYNODIOL DIACETATE] | Compound metabolized | Compound metabolized | Compound metabolized | Compound metabolized | Compound metabolized | Compound metabolized | Compound metabolized | Compound metabolized | Compound metabolized | Compound metabolized | Compound metabolized | Compound metabolized | Compound metabolized | Compound metabolized | Compound NOT metabolized | Compound metabolized | Compound metabolized | Compound metabolized | Compound metabolized | Compound metabolized |
| CC(C)c1c(CN(C)C(C)Cc2ccccc2)n(C)n(-c2ccccc2)c1=O (stereo not given) [FAMPROFAZONE] | Compound metabolized | Compound metabolized | Compound metabolized | Compound metabolized | Compound metabolized | Compound metabolized | Compound metabolized | Compound metabolized | Compound metabolized | Compound metabolized | Compound metabolized | Compound metabolized | Compound metabolized | Compound metabolized | Compound metabolized | Compound metabolized | Compound metabolized | Compound metabolized | Compound metabolized | Compound metabolized |
| N=C(N)NC(=O)Cc1c(Cl)cccc1Cl [GUANFACINE] | Compound NOT metabolized | Compound NOT metabolized | Compound NOT metabolized | Compound NOT metabolized | Compound NOT metabolized | Compound NOT metabolized | Compound NOT metabolized | Compound NOT metabolized | Compound NOT metabolized | Compound NOT metabolized | Compound NOT metabolized | Compound NOT metabolized | Compound NOT metabolized | Compound NOT metabolized | Compound NOT metabolized | Compound NOT metabolized | Compound NOT metabolized | Compound NOT metabolized | Compound NOT metabolized | Compound NOT metabolized |
| Nc1nc(N)nc(-c2cc(Cl)ccc2Cl)n1.O=C(O)/C=C\C(=O)O [IRSOGLADINE MALEATE] | Compound NOT metabolized | Compound NOT metabolized | Compound NOT metabolized | Compound NOT metabolized | Compound NOT metabolized | Compound NOT metabolized | Compound NOT metabolized | Compound NOT metabolized | Compound NOT metabolized | Compound NOT metabolized | Compound metabolized | Compound NOT metabolized | Compound NOT metabolized | Compound NOT metabolized | Compound NOT metabolized | Compound NOT metabolized | Compound NOT metabolized | Compound NOT metabolized | Compound NOT metabolized | Compound NOT metabolized |
| CN1CCC(=C2c3ccccc3CC(=O)c3sccc32)CC1.O=C(O)/C=C/C(=O)O [KETOTIFEN FUMARATE] | Compound NOT metabolized | Compound metabolized | Compound NOT metabolized | Compound NOT metabolized | Compound NOT metabolized | Compound NOT metabolized | Compound NOT metabolized | Compound metabolized | Compound NOT metabolized | Compound NOT metabolized | Compound metabolized | Compound NOT metabolized | Compound NOT metabolized | Compound metabolized | Compound NOT metabolized | Compound metabolized | Compound NOT metabolized | Compound metabolized | Compound NOT metabolized | Compound NOT metabolized |
| CC[C@H](C)C(=O)O[C@H]1CCC=C2C=C[C@H](C)[C@H](CC[C@@H]3C[C@@H](O)CC(=O)O3)[C@H]21 [MEVASTATIN] | Compound NOT metabolized | Compound metabolized | Compound NOT metabolized | Compound NOT metabolized | Compound metabolized | Compound NOT metabolized | Compound NOT metabolized | Compound metabolized | Compound NOT metabolized | Compound NOT metabolized | Compound metabolized | Compound NOT metabolized | Compound NOT metabolized | Compound metabolized | Compound metabolized | Compound NOT metabolized | Compound NOT metabolized | Compound metabolized | Compound NOT metabolized | Compound NOT metabolized |
| COc1ccc2cc([C@H](C)C(=O)O)ccc2c1 [NAPROXEN] | Compound NOT metabolized | Compound metabolized | Compound NOT metabolized | Compound NOT metabolized | Compound metabolized | Compound NOT metabolized | Compound metabolized | Compound metabolized | Compound NOT metabolized | Compound NOT metabolized | Compound metabolized | Compound NOT metabolized | Compound NOT metabolized | Compound metabolized | Compound NOT metabolized | Compound NOT metabolized | Compound NOT metabolized | Compound metabolized | Compound NOT metabolized | Compound metabolized |
| C#C[C@]1(OC(C)=O)CC[C@H]2[C@@H]3CCC4=C/C(=N/O)CC[C@@H]4[C@H]3CC[C@@]21CC [NORGESTIMATE] | Compound NOT metabolized | Compound NOT metabolized | Compound NOT metabolized | Compound NOT metabolized | Compound NOT metabolized | Compound NOT metabolized | Compound metabolized | Compound metabolized | Compound NOT metabolized | Compound metabolized | Compound metabolized | Compound metabolized | Compound metabolized | Compound metabolized | Compound metabolized | Compound NOT metabolized | Compound NOT metabolized | Compound metabolized | Compound NOT metabolized | Compound metabolized |
